Measured values published in patent publication US8993282B2, “Carotenoid fermentation method” (JX Nippon Oil & Energy Corporation, priority 2008, dated 2015).

Assays:
[1] = test system: Paracoccus carotinifaciens strain E-396 (FERM BP-4283); assay: Amino acid supplementation (20 amino acids), test tube culture, carotenoid by HPLC and growth by OD610; type: cell-based; conditions: amino acid at 1.0 g/L
Protocol: (§1) In the examples, carotenoids were quantified by high performance liquid chromatography (HPLC) as follows.
(§2) Two columns of Wakosil-II 5 SIL-100 (φ4.6×250 mm) (Wako Pure Chemical Industries, Ltd., Japan) were connected to each other for use as a column. Elution was performed by flowing an n-hexane-tetrahydrofuran-methanol mixed solution (40:20:1), which was a mobile phase, at a flow rate of 1.0 mL/minute at a constant temperature around room temperature. The measurement was performed as follows. Samples were each dissolved in tetrahydrofuran and then diluted 100-fold with the mobile phase. Each dilution was injected in a volume of 20 μL. The column eluate was detected at a wavelength of 470 nm. As a reference for quantification, astaxanthin (SIGMA, Cat. No. A9335) was used. The astaxanthin concentration of the reference solution was determined using the following equation after measuring the absorbance (A) of the reference solution at 477 nm and the area percentage % (B) of the astaxanthin peak at the time of HPLC analysis under the above conditions. Astaxanthin concentration (mg/L)=A/2150×B×100
A medium of the following composition (sucrose 30 g/L, corn steep liquor 30 g/L, potassium dihydrogenphosphate 1.5 g/L, disodium hydrogenphosphate 12-hydrate 3.8 g/L, calcium chloride dihydrate 5.0 g/L, magnesium sulfate 7-hydrate 0.7 g/L, iron sulfate 7-hydrate 0.3 g/L, pH 7.2) was dispensed in 8 ml volumes into cotton-plugged test tubes having an inner diameter of 18 mm and sterilized in an autoclave at 121° C. for 15 minutes to prepare a test tube medium for seed culture.
(§3) Next, a medium of the following composition (glucose 30 g/L, filtered corn steep liquor 5 g/L, ammonium sulfate 1.5 g/L, potassium dihydrogenphosphate 1.5 g/L, disodium hydrogenphosphate 12-hydrate 3.8 g/L, calcium chloride dihydrate 5.0 g/L, magnesium sulfate 7-hydrate 0.7 g/L, iron sulfate 7-hydrate 0.6 g/L, ester-based defoaming agent 0.2 g/L) was dispensed in 8 ml volumes into cotton-plugged test tubes having an inner diameter of 18 mm (21 tubes in total).
The mediums in these test tubes were supplemented with 20 amino acids, glycine, alanine, valine, leucine, isoleucine, serine, threonine, aspartic acid, glutamic acid, asparagine, glutamine, lysine, arginine, cysteine, methionine, phenylalanine, tyrosine, tryptophan, histidine and proline, respectively, at 1.0 g/L. One of the tubes was supplemented with no amino acid as a control. Finally, the mediums in the tubes were adjusted to pH 7.1 with aqueous sodium hydroxide or aqueous sulfuric acid and then sterilized in an autoclave at 121° C. for 20 minutes.
Paracoccus carotinifaciens strain E-396 (FERM BP-4283) was inoculated into the test tube medium for seed culture and then cultured with shaking at 28° C. for 2 days at 300 spm. The resulting culture solution was then inoculated in 0.1 ml volumes into the 21 test tube media, respectively, and cultured with shaking at 28° C. for 4 days at 300 spm.
Each culture solution was measured for its carotenoid concentration by HPLC and microbial cell growth was determined by OD610 (absorbance at 610 nm).

[2] = test system: Paracoccus sp. strain K-185; assay: Glutamate supplementation, test tube culture (soybean meal medium), carotenoid by HPLC; type: cell-based
Protocol: as §1
as §2, with “conditions.” for “conditions. Astaxanthin concentration (mg/L)=A/2150×B×100”
as §3, with “soybean meal 20” for “filtered corn steep liquor 5”, “(2” for “(21”, “total). One of the test tubes was supplemented with monosodium L-glutamate monohydrate to 30 mmol/L, while the other was supplemented with nothing as a control.” for “total).”
The resulting culture solution was then inoculated in 0.1. ml volumes into the two test tube mediums and cultured with shaking at 28° C. for 3 days at 300 spm. Each culture solution was measured for its carotenoid concentration by HPLC.

[3] = culture solution, 28° C. for 4 days
[4] = Glutamic acid concentration 30 mmol/L, 28° C. for 3 days

N[C@@H](CCC(=O)O)C(=O)O [Glutamic acid, glutamic acid]
effect on the production of carotenoid pigments ([1]; versus tube with no amino acid): stimulatory effect
Astaxanthin [1, 3]: 10.7 mg/L
Total carotenoid [1, 3]: 28.2 mg/L
OD610 ([1]; microbial cell growth, absorbance at 610 nm, 28° C. for 4 days): 17
produced carotenoid concentration compared to the sample without glutamic acid ([2]; 30 mmol/L): higher produced carotenoid concentration
3-Hydroxyechinenone [2, 4]: 0.1 mg/L
Adonixanthin [2, 4]: 1.6 mg/L
Astaxanthin [2, 4]: 9.2 mg/L
Asteroidenone [2, 4]: 0.1 mg/L
Canthaxanthin [2, 4]: 1.3 mg/L
Echinenone [2, 4]: 0.6 mg/L
Phoenicoxanthin [2, 4]: 2.0 mg/L
Total carotenoid [2, 4]: 17.1 mg/L
Zeaxanthin [2, 4]: 0.03 mg/L
β-Carotene [2, 4]: 2.1 mg/L
β-Cryptoxanthin [2, 4]: 0.02 mg/L
